Laboratory results: patent US20160106439A1, “PNEUMATIC TOURNIQUET” (BIONUMERIK PHARMACEUTICALS, INC., priority 2013, published 2016)
“Also recorded” adds a separate entry of the source. Read-outs that look alike come from different tables or passages of the source.

Legend:
recombinant human ALK = recombinant human ALK (Homo sapiens, UniProt Q9UM73); assay: biochemical; conditions: for IC50: IC50 on ALK
Procedure: (§1) The substrate that was phosphorylated by the kinase, polyglutamate-tyrosine (PolyGT), was purchased from Sigma (P0275, lot 120M5007V).
All other reagents were purchased from Sigma Aldrich. A Tecan Ultra microplate reader with XFluor software (Tecan, V4.51) and RdrOle software (Tecan, V4.50) were used in this study.
ALK phosphorylated the polyGT substrate using the ATP cofactor and produced ADP. […] The reactions, in microtubes, were incubated for 60 minutes at 25° C. in a water bath. Following this 60 minute incubation, reactions were transferred to microplates and the kinase activity was evaluated using the ADP-glo system from Promega and monitored, in an endpoint assay, ADP produced when ALK phosphorylated the PolyGT substrate. Various controls were tested and included the assay components indicated in the columns of Table 9 below (where + indicates the component was included and an empty cell indicates it was not included).
Kinase assays were run in triplicate or quadruplicate in microplates. Following this, the ADP-glo detection system (Promega) was used to determine how much ADP had been produced. For 10 μL volume assays, to each microplate well containing 10 μL of kinase reaction was added ADP-glo reagent (10 μL), plates were spun in a table top centrifuge (1000 rpm (123×g) for 1 minute) to ensure no reagent remained on the well walls, and then agitated for 1 minute to ensure optimal mixing. Plates were incubated at 25° C. on a heat block for 40 minutes. Next, kinase detection reagent (20 μL) was added and, as above, centrifugation and agitation was repeated; plates were allowed to incubate at 25° C.±1° C. on a heat block for 40 minutes. Following the incubation of the kinase detection reagent, plates were read on a Tecan Ultra microplate reader. The Tecan Ultra contained a built-in plate definition file for the whole area 96-well white Corning plates but a plate definition file for the half area 96-well Corning plates was created using the RdrOle component of the Tecan Ultra software. For 25 μL volume assays, the procedure was as described above except that the ADP-glo reagent added to the 25 μL assay was 25 μL in volume and the kinase detection reagent was 50 μL in volume.
Therefore, each mole of polymer of 20,000 g/mole would contain approximately 28 moles of the glu-glu-glu-glu-tyr “subpolymer.” Typically, a 10 μL assay would contain […] of the polyGT substrate. […] This was a vast excess of possible tyrosine phosphorylation sites, ensuring that the substrate for phosphorylation was not rate limiting (assuming the higher mass range would produce an even larger excess of glu-glu-glu-glu-tyr “subpolymers”).
Data from ALK assays run on the Tecan Ultra microplate spectrophotometer were collected in Microsoft Excel. Error calculations and graphical representations were performed in Microsoft Office Excel (Microsoft Corporation, Redmond, Wash., USA). Determination of IC25, IC50 and IC75 values were accomplished using Origin Lab software (OriginLab Corporation, Northampton, Mass., USA).

ROS1 kinase = ROS1 kinase (Homo sapiens, UniProt P08922); conditions: for effect on crizotinib inhibition of ROS1 kinase activity: ATP and polyGT
ROS1 kinase, sequence (P08922 1883-2347): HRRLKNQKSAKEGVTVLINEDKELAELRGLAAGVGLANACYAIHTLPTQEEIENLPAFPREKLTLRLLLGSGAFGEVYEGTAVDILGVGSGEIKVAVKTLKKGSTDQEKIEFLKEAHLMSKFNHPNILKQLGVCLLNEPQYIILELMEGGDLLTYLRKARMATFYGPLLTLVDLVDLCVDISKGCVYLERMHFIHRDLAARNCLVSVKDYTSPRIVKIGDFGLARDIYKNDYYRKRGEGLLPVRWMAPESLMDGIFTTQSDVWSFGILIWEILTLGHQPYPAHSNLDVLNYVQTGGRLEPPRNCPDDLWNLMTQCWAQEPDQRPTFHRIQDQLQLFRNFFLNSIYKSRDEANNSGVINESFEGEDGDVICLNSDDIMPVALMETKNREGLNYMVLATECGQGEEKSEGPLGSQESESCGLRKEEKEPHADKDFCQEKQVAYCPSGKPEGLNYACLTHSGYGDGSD
Procedure: as §1
All other reagents were purchased from Sigma Aldrich. A Tecan Ultra microplate reader with XFluor4 software (Tecan, V4.51) and RdrOle software (Tecan, V4.50) were used in this study.
ROS1 kinase phosphorylated the polyGT substrate using the ATP cofactor and produced ADP. […] The reactions, in microtubes, were incubated for 60 minutes at 25° C. in a water bath. Following this 60 minute incubation, 10 μL aliquots were transferred to microplates and the kinase activity was evaluated using the Promega ADP-glo system that monitored, in an endpoint assay, ADP produced when ROS1 kinase phosphorylated the PolyGT substrate.
It should be noted that numerous controls were tested and included the assay components indicated in the columns of Table 10 below (where + indicates the component was included and an empty space indicates it was not included).
The Kinase Assays, as described in Section II above, were run in triplicate or quadruplicate in microplates. Following these assays, the ADP-glo detection system (Promega) was used to determine how much ADP had been produced.
For 10 μL volume assays, to each microplate well containing 10 μL of kinase reaction was added ADP-glo reagent (10 μL), the microplates were spun in a table top centrifuge (1000 rpm (123×g) for 1 minute) to ensure that no reagent remained on the walls of the individual wells, and then agitated for 1 minute to ensure optimal mixing. The microplates were incubated at 25° C. on a heat block for 40 minutes. Kinase detection reagent (20 μL) was then added and, as above, centrifugation and agitation was repeated; with the microplates being allowed to incubate at 25° C.±1° C. on a heat block for 40 minutes. Following the incubation of the kinase detection reagent, the microplates were read on a Tecan Ultra microplate reader. The Tecan Ultra contained a built-in plate definition file for the whole area 96-well, white Corning microplates; however a microplate definition file for the half area 96-well Corning plates was created using the RdrOle component of the Tecan Ultra software.
Therefore, each mole of PolyGT polymer of 20,000 g/mole would contain approximately 28 moles of the glu-glu-glu-glu-tyr “subpolymer.”
Typically, a 10 μL assay volume would contain 2 μg of the polyGT substrate. Assuming the lower polymer mass of 20,000 g/mol mass, this translates to approximately 10 μM polyGT per assay and […] glu-glu-glu-glu-tyr “subpolymer” per assay.
Data from ROS1 kinase assays run on the Tecan Ultra microplate spectrophotometer were collected in Microsoft Excel. Error calculations and graphical representations were performed in Microsoft Office Excel (Microsoft Corporation, Redmond, Wash., USA). Determination of IC25, IC50 and IC75 values were accomplished using Origin Lab software (OriginLab Corporation, Northampton, Mass., USA).

TrxR/Trx system = target: T1, TrxR/Trx system (Homo sapiens, UniProt P10599); assay: NADPH oxidation by TrxR and Trx; assay type: biochemical; conditions: increasing concentrations of the substance
T1 construct: 6xHis (N); purchased Sigma (Trx); American Diagnostica (bovine TrxR)
T1 sequence (P10599 1-105): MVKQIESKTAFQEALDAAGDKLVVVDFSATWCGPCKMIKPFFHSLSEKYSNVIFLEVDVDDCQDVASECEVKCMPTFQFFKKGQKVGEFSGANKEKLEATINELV

recombinant human ALK, sequence (Q9UM73 1058-1620 limits assumed): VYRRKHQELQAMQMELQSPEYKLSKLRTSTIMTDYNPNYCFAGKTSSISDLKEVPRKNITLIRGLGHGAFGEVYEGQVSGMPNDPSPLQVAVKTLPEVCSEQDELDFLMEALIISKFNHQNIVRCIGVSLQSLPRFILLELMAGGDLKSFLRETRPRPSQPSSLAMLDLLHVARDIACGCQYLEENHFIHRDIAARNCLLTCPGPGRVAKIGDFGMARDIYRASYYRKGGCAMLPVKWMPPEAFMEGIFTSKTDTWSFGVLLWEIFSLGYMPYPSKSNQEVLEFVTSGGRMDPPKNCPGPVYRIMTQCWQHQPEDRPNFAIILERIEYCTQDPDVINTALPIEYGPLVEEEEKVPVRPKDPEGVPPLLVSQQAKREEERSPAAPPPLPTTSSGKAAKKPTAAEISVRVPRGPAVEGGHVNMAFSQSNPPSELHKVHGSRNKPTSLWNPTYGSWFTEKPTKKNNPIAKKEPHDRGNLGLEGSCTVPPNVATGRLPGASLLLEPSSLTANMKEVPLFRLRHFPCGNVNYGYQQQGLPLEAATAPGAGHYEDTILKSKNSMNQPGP

For `O=S(=O)([O-])CCSSCCS(=O)(=O)[O-].[Na+].[Na+]` [Tavocept, disodium 2,2′-dithio-bis-ethane sulfonate], which “greater inhibition of ALK than Crizotinib alone” value (from here on “greater inhibition”) (recombinant human ALK; 100 μM ATP, 5 mM Tavocept + 15 nM Crizotinib) is on record?
Its value is 16%.

What about the “greater inhibition” value (recombinant human ALK; 100 μM ATP, 5 mM Tavocept + 30 nM Crizotinib) of the same molecule?
Its value is 10%.

And the “greater inhibition” value (recombinant human ALK; 100 μM ATP, 10 mM Tavocept + 15 nM Crizotinib)?
Its value is 29%.

And the “greater inhibition” value (recombinant human ALK; 100 μM ATP, 10 mM Tavocept + 30 nM Crizotinib)?
Its value is 19%.

What about the “greater inhibition” value (recombinant human ALK; 500 μM ATP, 5 mM Tavocept + 30 nM Crizotinib) of the same molecule?
Its value is 11%.

And the “greater inhibition” value (recombinant human ALK; 500 μM ATP, 5 mM Tavocept + 65 nM Crizotinib)?
Its value is 6%.

What about the “greater inhibition” value (recombinant human ALK; 500 μM ATP, 10 mM Tavocept + 30 nM Crizotinib) of the same molecule?
Its value is 20%.

What about the “greater inhibition” value (recombinant human ALK; 500 μM ATP, 10 mM Tavocept + 65 nM Crizotinib) of the same molecule?
Its value is 6%.

What about the “greater inhibition” value (recombinant human ALK; 500 μM ATP, 20 mM Tavocept + 30 nM Crizotinib) of the same molecule?
The value was 30%.

What about the “greater inhibition” value (recombinant human ALK; 500 μM ATP, 20 mM Tavocept + 65 nM Crizotinib) of the same molecule?
The value was 13%.

And the IC50 (recombinant human ALK; 100 μM ATP)?
The IC50 was 9.16 ± 2.91 mM.

And the IC50 (recombinant human ALK; 500 μM ATP)?
The IC50 was 20.8 ± 3.49 mM.

And the inhibition at 5000 µM (recombinant human ALK; read-out: greater inhibition of ALK than Crizotinib alone, 100 μM ATP, 5 mM Tavocept + 15 nM Crizotinib)?
The inhibition at 5000 µM was 16%.

What about the inhibition at 5000 µM (recombinant human ALK; read-out: greater inhibition of ALK than Crizotinib alone, 100 μM ATP, 5 mM Tavocept + 30 nM Crizotinib) of the same molecule?
The inhibition at 5000 µM was 10%.

What about the inhibition at 10000 µM (recombinant human ALK; read-out: greater inhibition of ALK than Crizotinib alone, 100 μM ATP, 10 mM Tavocept + 15 nM Crizotinib) of the same molecule?
The inhibition at 10000 µM was 29%.

And the inhibition at 10000 µM (recombinant human ALK; read-out: greater inhibition of ALK than Crizotinib alone, 100 μM ATP, 10 mM Tavocept + 30 nM Crizotinib)?
Its inhibition at 10000 µM is 19%.

What about the inhibition at 5000 µM (recombinant human ALK; read-out: greater inhibition of ALK than Crizotinib alone, 500 μM ATP, 5 mM Tavocept + 30 nM Crizotinib) of the same molecule?
The inhibition at 5000 µM was 11%.

What about the inhibition at 5000 µM (recombinant human ALK; read-out: greater inhibition of ALK than Crizotinib alone, 500 μM ATP, 5 mM Tavocept + 65 nM Crizotinib) of the same molecule?
Its inhibition at 5000 µM is 6%.

What about the inhibition at 10000 µM (recombinant human ALK; read-out: greater inhibition of ALK than Crizotinib alone, 500 μM ATP, 10 mM Tavocept + 30 nM Crizotinib) of the same molecule?
The inhibition at 10000 µM was 20%.

And the inhibition at 10000 µM (recombinant human ALK; read-out: greater inhibition of ALK than Crizotinib alone, 500 μM ATP, 10 mM Tavocept + 65 nM Crizotinib)?
The inhibition at 10000 µM was 6%.

And the inhibition at 20000 µM (recombinant human ALK; read-out: greater inhibition of ALK than Crizotinib alone, 500 μM ATP, 20 mM Tavocept + 30 nM Crizotinib)?
The inhibition at 20000 µM was 30%.

And the inhibition at 20000 µM (recombinant human ALK; read-out: greater inhibition of ALK than Crizotinib alone, 500 μM ATP, 20 mM Tavocept + 65 nM Crizotinib)?
Its inhibition at 20000 µM is 13%.

What about the “loss of ROS1 kinase activity” value (ROS1 kinase; 5 mM Tavocept incubated with ROS1 for 24 hours prior to ATP and polyGT, 100 μM ATP) of the same molecule?
Its value is 15%.

What about the “loss of ROS1 kinase activity” value (ROS1 kinase; 10 mM Tavocept incubated with ROS1 for 3 hours prior to ATP and polyGT, 100 μM ATP) of the same molecule?
The value was 16%.

What about the “loss of ROS1 kinase activity” value (ROS1 kinase; 10 mM Tavocept incubated with ROS1 for 24 hours prior to ATP and polyGT, 100 μM ATP) of the same molecule?
Its value is 31%.

And the “loss of ROS1 kinase activity” value (ROS1 kinase; 20 mM Tavocept incubated with ROS1 for 3 hours prior to ATP and polyGT, 100 μM ATP)?
The value was 26%.

And the “loss of ROS1 kinase activity” value (ROS1 kinase; 20 mM Tavocept incubated with ROS1 for 24 hours prior to ATP and polyGT, 100 μM ATP)?
The value was 48%.

And the “effect on ROS1 kinase activity” value (ROS1 kinase; Tavocept (2.5-20 mM) added simultaneously with ATP and polyGT)?
Its value is “did not have a notable effect; also recorded: no discernible”.

And the “effect on crizotinib inhibition of ROS1 kinase activity” value (shortened to “effect on crizotinib inhibition”) (ROS1 kinase; Tavocept (2.5 to 20 mM) incubated with ROS1 for 3 or 24 hours prior to crizotinib)?
The value was “additive manner”.

And the “effect on crizotinib inhibition” value (ROS1 kinase; Tavocept (2.5 to 20 mM) incubated with ROS1 for 3 or 24 hours prior to crizotinib, listed as BNP7787)?
The value was “additive effect”.

What about the “effect on crizotinib inhibition” value (ROS1 kinase; Tavocept added simultaneously with crizotinib, 100 μM ATP) of the same molecule?
The value was “did not affect; also recorded: no discernible”.

And the “NADPH oxidation by TrxR and Trx” value (TrxR/Trx system)?
Its value is “increases”.
